Reference: paper PMC7351026, “Serum Half-Lives for Short- and Long-Chain Perfluoroalkyl Acids after Ceasing Exposure from Drinking Water Contaminated by Firefighting Foam” (Environmental Health Perspectives, 2020)
Several values for one entry are separate records, joined by “and”; a condition that tells them apart may be missing. Identical values can stand only once. Marks after values point to notes of the source that are not given here.

Assays:
[1] = Individual serum elimination rate and half-life (linear regression per employee); settings: individual estimate;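 on HL (half-life): half-life in years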
Protocol: Serum PFAS concentrations were log-transformed. Time was calculated as the elapsed days between supply of clean bottled water and […] blood sampling. We assumed one compartment, first-order elimination kinetics. In this kinetic model, the body is considered as one homogeneous volume in which mixing is instantaneous and from which PFAS could be absorbed, transferred, and eliminated according to the rate of elimination that is proportional to the concentration of PFAS in the body. Two methods were used to estimate serum elimination rate constant (k) and half-life for each PFAS:
Method 2: For estimation of individual k, linear regression was used to derive the slope ( β ) of the logarithm of serum concentrations vs. time for each employee. The negative value of the slope ( −β ) for each individual was equivalent to the individual k, and individual serum elimination half-life was calculated as ln2/k for each PFAS. If β was positive (i.e., PFAS concentrations tended to increase over the five samplings), the half-life was not calculated.

[2] = PFAS levels in serum samples of airport employees (LC/MS/MS)
How it was run: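 LC/MS/MS quantification (BEH C18, 5 mM ammonium acetate water:methanol to methanol gradient) after protein precipitation of 25 μL serum with isotopically labeled internal standards, FBS-matrix calibration. Samples stored at −80°C, collected at monthly intervals from September 2018 and run together in a single batch.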

[3] = 1st sampling (September 2018), count 17
[4] = 2nd sampling (October 2018), count 17
[5] = 3rd sampling (November, 2018), count 17
[6] = 4th sampling (December 2018), count 16
[7] = 5th sampling (January 2019), count 16
[8] = employees participated in first blood sampling and repeated blood and urine sampling, N=17
[9] = employees participated in first blood sampling only, N=9, 11-14 d after end of exposure
[10] = first serum samples, all 26 airport employees
[11] = median of first serum samples, all 26 airport employees

Compound: O=S(=O)(O)C(F)(F)C(F)(F)C(F)(F)C(F)(F)F [PFBS, perfluorobutane sulfonic acid]
- Elimination rate ([1]; subject 1, 5 samples): 3.2 yearly
- HL (half-life) ([1]; subject 1, 5 samples): 0.2 year
- Elimination rate ([1]; subject 2, 5 samples): 4.0 yearly
- HL (half-life) ([1]; subject 2, 5 samples): 0.2 year
- Elimination rate ([1]; subject 3, 5 samples): 5.1 yearly
- HL (half-life) ([1]; subject 3, 5 samples): 0.1 year
- Elimination rate ([1]; subject 4, 5 samples): 3.1 yearly
- HL (half-life) ([1]; subject 4, 5 samples): 0.2 year
- Elimination rate ([1]; subject 5, 5 samples): 3.0 yearly
- HL (half-life) ([1]; subject 5, 5 samples): 0.2 year
- Elimination rate ([1]; subject 6, 4 samples): 2.9 yearly
- HL (half-life) ([1]; subject 6, 4 samples): 0.2 year
- Elimination rate ([1]; subject 7, 5 samples): 6.2 yearly
- HL (half-life) ([1]; subject 7, 5 samples): 0.1 year
- Elimination rate ([1]; subject 8, 5 samples): 4.4 yearly
- HL (half-life) ([1]; subject 8, 5 samples): 0.2 year
- Elimination rate ([1]; subject 9, 5 samples): 11.7 yearly
- HL (half-life) ([1]; subject 9, 5 samples): 0.1 year
- Elimination rate ([1]; subject 10, 5 samples): 3.8 yearly
- HL (half-life) ([1]; subject 10, 5 samples): 0.2 year
- Elimination rate ([1]; subject 11, 5 samples): 7.1 yearly
- HL (half-life) ([1]; subject 11, 5 samples): 0.1 year
- Elimination rate ([1]; subject 12, 5 samples): 5.4 yearly
- HL (half-life) ([1]; subject 12, 5 samples): 0.1 year
- Elimination rate ([1]; subject 13, 5 samples): 6.2 yearly
- HL (half-life) ([1]; subject 13, 5 samples): 0.1 year
- Elimination rate ([1]; subject 14, 4 samples): 10.7 yearly
- HL (half-life) ([1]; subject 14, 4 samples): 0.1 year
- Elimination rate ([1]; subject 15, 5 samples): 5.7 yearly
- HL (half-life) ([1]; subject 15, 5 samples): 0.1 year
- Elimination rate ([1]; subject 16, 5 samples): 3.6 yearly
- HL (half-life) ([1]; subject 16, 5 samples): 0.2 year
- Elimination rate ([1]; subject 17, 5 samples): 10.4 yearly
- HL (half-life) ([1]; subject 17, 5 samples): 0.1 year
- Serum PFAS level, 25 percentile [2, 3]: 0.32
- Serum PFAS level, 75 percentile [2, 3]: 0.68
- Serum PFAS level, Max [2, 3]: 1.3
- Serum PFAS level, Median [2, 3]: 0.46
- Serum PFAS level, Min [2, 3]: 0.22
- Serum PFAS level, 25 percentile [2, 4]: 0.11
- Serum PFAS level, 75 percentile [2, 4]: 0.31
- Serum PFAS level, Max [2, 4]: 0.70
- Serum PFAS level, Median [2, 4]: 0.17
- Serum PFAS level, Min [2, 4]: < LOD
- Serum PFAS level, 25 percentile [2, 5]: < LOD
- Serum PFAS level, 75 percentile [2, 5]: 0.28
- Serum PFAS level, Max [2, 5]: 0.65
- Serum PFAS level, Median [2, 5]: 0.09
- Serum PFAS level, Min [2, 5]: < LOD
- Serum PFAS level, 25 percentile [2, 6]: < LOD
- Serum PFAS level, 75 percentile [2, 6]: 0.24
- Serum PFAS level, Max [2, 6]: 0.52
- Serum PFAS level, Median [2, 6]: 0.08
- Serum PFAS level, Min [2, 6]: < LOD
- Serum PFAS level, 25 percentile [2, 7]: < LOD
- Serum PFAS level, 75 percentile [2, 7]: 0.11
- Serum PFAS level, Max [2, 7]: 0.30
- Serum PFAS level, Median [2, 7]: 0.06
- Serum PFAS level, Min [2, 7]: < LOD
- Serum level in the first samples, median (range) ([2]; all 26 airport employees): 0.33 ( <LOD –1.3) ng/mL
- PFAS in first serum sample, median (range) [2, 8]: 0.46 ng/mL and 0.46 (0.22–1.3) ng/mL
- PFAS in first serum sample, median (range) [2, 9]: 0.10 ( <LOD –1.0)^d ng/mL
- Initial serum PFAS level, max ([2]; females (N=7)): 1.3 ng/mL
- Initial serum PFAS level, median ([2]; females (N=7)): 0.39 ng/mL
- Initial serum PFAS level, min ([2]; females (N=7)): 0.06 ng/mL
- Relative composition of PFAS in serum, molar concentration basis [2, 10]: 0.4%
- Relative composition of PFAS in serum, weight basis [2, 10]: 0.3%
- Initial serum PFAS level, Max ([2]; males (N=19)): 1.1 ng/mL
- Initial serum PFAS level, Min ([2]; males (N=19)): < LOD
- Initial serum PFAS level, median ([2]; males (N=19)): 0.32 ng/mL
- Serum concentration, molar basis [2, 11]: 0.0011
- Serum concentration, weight basis [2, 11]: 0.33

Compound: perfluoro-3/4/5-methylheptanesulfonate [3/4/5m-PFOS]
- Elimination rate ([1]; subject 1, 5 samples): 0.4 yearly
- HL (half-life) ([1]; subject 1, 5 samples): 1.9 year
- Elimination rate ([1]; subject 2, 5 samples): 0.3 yearly
- HL (half-life) ([1]; subject 2, 5 samples): 2.1 year
- Elimination rate ([1]; subject 3, 5 samples): 0.4 yearly
- HL (half-life) ([1]; subject 3, 5 samples): 1.7 year
- Elimination rate ([1]; subject 4, 5 samples): 0.1 yearly
- HL (half-life) ([1]; subject 4, 5 samples): 11 year
- Elimination rate ([1]; subject 5, 5 samples): 0.2 yearly
- HL (half-life) ([1]; subject 5, 5 samples): 3.1 year
- Elimination rate ([1]; subject 6, 4 samples): 0.04 yearly
- HL (half-life) ([1]; subject 6, 4 samples): 19 year
- Elimination rate ([1]; subject 7, 5 samples): 0.1 yearly
- HL (half-life) ([1]; subject 7, 5 samples): 4.8 year
- Elimination rate ([1]; subject 8, 5 samples): −0.2 yearly
- Elimination rate ([1]; subject 9, 5 samples): 0.1 yearly
- HL (half-life) ([1]; subject 9, 5 samples): 10 year
- Elimination rate ([1]; subject 10, 5 samples): 0.2 yearly
- HL (half-life) ([1]; subject 10, 5 samples): 4.0 year
- Elimination rate ([1]; subject 11, 5 samples): 2.0 yearly
- HL (half-life) ([1]; subject 11, 5 samples): 0.4 year
- Elimination rate ([1]; subject 12, 5 samples): 0.5 yearly
- HL (half-life) ([1]; subject 12, 5 samples): 1.3 year
- Elimination rate ([1]; subject 13, 5 samples): 0.5 yearly
- HL (half-life) ([1]; subject 13, 5 samples): 1.5 year
- Elimination rate ([1]; subject 14, 4 samples): 0.3 yearly
- HL (half-life) ([1]; subject 14, 4 samples): 2.0 year
- Elimination rate ([1]; subject 15, 5 samples): 2.2 yearly
- HL (half-life) ([1]; subject 15, 5 samples): 0.3 year
- Elimination rate ([1]; subject 16, 5 samples): 0.3 yearly
- HL (half-life) ([1]; subject 16, 5 samples): 2.0 year
- Elimination rate ([1]; subject 17, 5 samples): 1.9 yearly
- HL (half-life) ([1]; subject 17, 5 samples): 0.4 year
- Serum PFAS level, 25 percentile [2, 3]: 2.7
- Serum PFAS level, 75 percentile [2, 3]: 6.3
- Serum PFAS level, Max [2, 3]: 17
- Serum PFAS level, Median [2, 3]: 4.9
- Serum PFAS level, Min [2, 3]: 1.7
- Serum PFAS level, 25 percentile [2, 4]: 2.4
- Serum PFAS level, 75 percentile [2, 4]: 4.8
- Serum PFAS level, Max [2, 4]: 15
- Serum PFAS level, Median [2, 4]: 4.1
- Serum PFAS level, Min [2, 4]: 1.3
- Serum PFAS level, 25 percentile [2, 5]: 2.5
- Serum PFAS level, 75 percentile [2, 5]: 5.1
- Serum PFAS level, Max [2, 5]: 16
- Serum PFAS level, Median [2, 5]: 4.2
- Serum PFAS level, Min [2, 5]: 1.0
- Serum PFAS level, 25 percentile [2, 6]: 2.1
- Serum PFAS level, 75 percentile [2, 6]: 4.9
- Serum PFAS level, Max [2, 6]: 16
- Serum PFAS level, Median [2, 6]: 3.6
- Serum PFAS level, Min [2, 6]: 1.0
- Serum PFAS level, 25 percentile [2, 7]: 2.7
- Serum PFAS level, 75 percentile [2, 7]: 4.9
- Serum PFAS level, Max [2, 7]: 16
- Serum PFAS level, Median [2, 7]: 4.0
- Serum PFAS level, Min [2, 7]: 1.0
- PFAS in first serum sample, median (range) [2, 8]: 4.9 (1.7–17) ng/mL
- PFAS in first serum sample, median (range) [2, 9]: 2.9 (1.2–6.7) ng/mL
- Initial serum PFAS level, max ([2]; females (N=7)): 5.4 ng/mL
- Initial serum PFAS level, median ([2]; females (N=7)): 2.9 ng/mL
- Initial serum PFAS level, min ([2]; females (N=7)): 1.7 ng/mL
- Initial serum PFAS level, Max ([2]; males (N=19)): 17 ng/mL
- Initial serum PFAS level, Min ([2]; males (N=19)): 1.2 ng/mL
- Initial serum PFAS level, median ([2]; males (N=19)): 4.9 ng/mL
